# Values joined by “and” are separate entries in the source; they are usually repeats but may differ in a detail not shown here. Equal values may be shown once. Read-outs that look alike come from different tables or passages of the source.
# Key:
# [1] = set-up: method as in NCT02699749; settings: estimated from preliminary data, ref NCT02699749; cited from earlier work
# solid tumors = tested on: solid tumors; set-up: method as in earlier work; settings: of 24 response-evaluable patients, first-in-human phase 1 study; cited from earlier work
# [2] = tested on: locally advanced or metastatic solid tumors; assay: Antitumor activity, investigator-assessed disease response (RECIST v1.1); type: in vivo, human
# Description: The primary endpoints were the ratio of geometric means of the following PK parameters for TAK-931 tablets in reference to PIC and associated 2-sided 90% confidence intervals (CIs): maximum observed plasma concentration (Cmax), area under the plasma concentration–time curve (AUC) from time 0 to time of the last quantifiable concentration (AUClast), and the AUC from time 0 to infinity (AUCinf). Secondary endpoints were PK parameters of TAK-931 80 mg following a single-dose administration as PIC or tablet (time of first occurrence of maximum observed plasma concentration [Tmax], and terminal disposition phase half-life [T1/2z]), antitumor activity, and safety.
compound,measurement,setting,value
Cc1[nH]ncc1-c1cc2nc([C@@H]3CC4CCN3CC4)[nH]c(=O)c2s1 [TAK-931],within-patient coefficient of variation for AUC,[1],35.0%
same,within-patient coefficient of variation for Cmax,[1],36.9%
same,patients with a partial response,solid tumors,3
same,patients with prolonged SD,solid tumors,4
same,partial or complete responses,[2]; 19 patients evaluable for response,No partial or complete responses
same,Median time to PD or death,[2]; 95% CI: 1.6–2.8,1.9 months
same,individual progression-free survival durations of patients with SD,"[2]; four patients with best response SD, + = censored observation",3.58 months and ≥ 2.23 months and 3.55 months and 4.01 months
same,On-study deaths,"PIC/Tablet sequence, n = 12",0 n (%)
same,On-study deaths,"Tablet/PIC sequence, n = 8",1 (13) n (%)
same,Dose modification: Dose increased,"human, in vivo",0 n (%)
same,Serious TEAEs: Not related,"human, in vivo",2 (25) n (%) and 2 (17) n (%) and 4 (20) n (%)
same,"TEAE Alopecia, Any-grade","human, in vivo",6 (30) n (%)
same,"TEAE Constipation, Any-grade","human, in vivo",8 (40) n (%)
same,"TEAE Decreased appetite, Any-grade","human, in vivo",4 (20) n (%)
same,"TEAE Disturbance in attention, Any-grade","human, in vivo",2 (10) n (%)
same,"TEAE Dyspnea, Any-grade","human, in vivo",3 (15) n (%)
same,"TEAE Dyspnea, Grade ≥ 3","human, in vivo",1 (5) n (%)
same,"TEAE Fatigue, Any-grade","human, in vivo",13 (65) n (%)
same,"TEAE Fatigue, Grade ≥ 3","human, in vivo",1 (5) n (%)
same,"TEAE Headache, Any-grade","human, in vivo",3 (15) n (%)
same,"TEAE Hypertension, Any-grade","human, in vivo",3 (15) n (%)
same,"TEAE Hypertension, Grade ≥ 3","human, in vivo",1 (5) n (%)
same,"TEAE Hypokalemia, Any-grade","human, in vivo",1 (5) n (%)
same,"TEAE Hypokalemia, Grade ≥ 3","human, in vivo",1 (5) n (%)
same,"TEAE Ileus, Any-grade","human, in vivo",2 (10) n (%)
same,"TEAE Ileus, Grade ≥ 3","human, in vivo",2 (10) n (%)
same,"TEAE Nausea, Any-grade","human, in vivo",8 (40) n (%)
same,"TEAE Neutropenia, Any-grade","human, in vivo",2 (10) n (%)
same,"TEAE Neutropenia, Grade ≥ 3","human, in vivo",2 (10) n (%)
same,"TEAE Pneumonia, Any-grade","human, in vivo",1 (5) n (%)
same,"TEAE Pneumonia, Grade ≥ 3","human, in vivo",1 (5) n (%)
same,"TEAE Rectal cancer, Any-grade","human, in vivo",1 (5) n (%)
same,"TEAE Rectal cancer, Grade ≥ 3","human, in vivo",1 (5) n (%)
same,"TEAE Vomiting, Any-grade","human, in vivo",6 (30) n (%)
same,"TEAE Weight decrease, Any-grade","human, in vivo",3 (15) n (%)
same,patients with TEAE alopecia,"human, in vivo",30%
same,patients with TEAE constipation,"human, in vivo",40%
same,patients with TEAE fatigue,"human, in vivo",65%
same,patients with TEAE nausea,"human, in vivo",40%
same,patients with TEAE vomiting,"human, in vivo",30%
same,patients with grade ≥ 3 TEAE ileus,"human, in vivo",10%
same,patients with grade ≥ 3 TEAE neutropenia,"human, in vivo",10%
same,patients with treatment-related TEAE alopecia,"human, in vivo",30%
same,patients with treatment-related TEAE decreased appetite,"human, in vivo",20%
same,patients with treatment-related TEAE fatigue,"human, in vivo",50%
same,patients with treatment-related TEAE nausea,"human, in vivo",30%
same,patients with treatment-related TEAE vomiting,"human, in vivo",20%

# — publication PMC10030390, “A phase 1 open-label study to assess the relative bioavailability of TAK-931 tablets in reference to powder-in-capsule in patients with advanced solid tumors” (Investigational New Drugs, 2022)
